Numbered stars: 1 amine (or outer) side, 2 acyl side, 3 side chain; on linkers, the order of the positions; unused ones are H or OH. Square brackets hold non-standard residues; d marks the D form. Peptide text beside a SMILES is read from it. * marks the point of attachment. dArg(Nω-CONH(CH2)2NHCOEt) = CCC(=O)NCCNC(=O)/N=C(/N)NCCC[C@@H](N)C(=O)O; DOTA = O=C(O)CN1CCN(CC(=O)O)CCN(CC(=O)*)CCN(CC(=O)O)CC1; X1 = O=C([C@H](c1ccc(OCCCN[*:1])cc1)N1Cc2ccccc2C1)[*:2]; NH(2,6-F2-4-OH-benzyl) = Oc1cc(F)c(CN*)c(F)c1; βAla = NCCC(=O)O
Molecular target: hNPY1R (Homo sapiens (Human), UniProt P25929)
Sequence (P25929 whole entry): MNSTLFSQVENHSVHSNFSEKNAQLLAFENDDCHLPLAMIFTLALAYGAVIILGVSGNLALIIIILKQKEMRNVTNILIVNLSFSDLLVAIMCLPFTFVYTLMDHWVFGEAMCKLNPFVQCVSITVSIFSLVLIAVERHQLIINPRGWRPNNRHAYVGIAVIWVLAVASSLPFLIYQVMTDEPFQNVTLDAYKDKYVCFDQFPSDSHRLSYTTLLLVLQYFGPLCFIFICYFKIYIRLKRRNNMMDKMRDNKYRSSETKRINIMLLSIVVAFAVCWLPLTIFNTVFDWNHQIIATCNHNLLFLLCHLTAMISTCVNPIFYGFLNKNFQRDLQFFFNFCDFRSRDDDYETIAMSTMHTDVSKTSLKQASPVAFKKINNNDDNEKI
Assay: NPY1R binding assay (SK-N-MC membrane, [125I]-Peptide YY competition);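 further: bound radioligand separated by filtration over GF/C filter plates and counted, Ki obtained by non-linear regression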
Details: crude SK-N-MC membranes endogenously expressing NPY1R; [125I]-Peptide YY (human) 0.05 nM; 120 min at room temperature; read-out: hNPY1R binding Ki
Experimental: Crude membrane fractions are prepared from SK-N-MC cells endogenously expressing the NPY1R receptor. The cells are grown to 85-100% confluence on standard tissue culture dishes in Eagle's Minimum Essential Medium supplemented with 10% dialyzed FBS. To prepare membranes, cells are scraped and collected in 1× Dulbecco's phosphate buffered saline and then pelleted at 1000 RPM's. The cell pellet is reconstituted in membrane preparation buffer (20 mM HEPES, 6 mM MgCl2 and 1 mM EGTA, protease inhibitor tablets, pH 7.4) and placed in a cell disruption vessel at 1000 PSI for 30 minutes on ice. The pressurized contents are then released and spun down at 1000 RPMs and the supernatant is collected and further centrifuged at 15,000 RPMs to pellet the membranes. The membrane pellet is resuspended in membrane preparation buffer, snap frozen and stored at −80° C. for later use.
Assay contents are then filtered through unifilter GF/C microplates and washed with 9×400 μl of cold wash buffer (25 mM HEPES, 5 mM MgCl2, 1 mM CaCl2), 500 mM NaCl, 0.1% Tween-20, pH 7.4). Assay plates are read using a Top Count NXT and Ki values for compounds are determined using a GraphPad Prism 6 non-linear regression analysis.

Row | SMILES | Ki [nM]
1 | CCC(=O)NCCNC(=O)/N=C(/N)NCCC[C@@H](NC(=O)[C@H](c1cccc(NC(=O)CCCNC(=O)CCCCCNC(=O)CN2CCN(CC(=O)O)CCN(CC(=O)O)CCN(CC(=O)O)CC2)c1)N1Cc2ccccc2C1)C(=O)NCc1ccc(O)cc1 [3A, 2,2′,2″-(10-(2-((6-((4-((3-((1S,4R,Z)-9-amino-4-((4-hydroxybenzyl)carbamoyl)-1-(isoindolin-2-yl)-2,11,16-trioxo-3,8,10,12,15-pentaazaoctadec-9-en-1-yl)phenyl)amino)-4-oxobutyl)amino)-6-oxohexyl)amino)-2-oxoethyl)-1,4,7,10-tetraazacyclododecane-1,4,7-triyl)triacetic acid-2,2,2-trifluoroacetic acid (1/1)] | < 10
2 | N=C(N)NCCC[C@@H](NC(=O)C(c1ccccc1)N1CCC(C2CC2)CC1)C(=O)NCc1ccc(O)cc1 (stereo partly drawn) [compound 81, (2R)-2-(2-(4-cyclopropylpiperidin-1-yl)-2-phenylacetamido)-5-guanidino-N-(4-hydroxybenzyl)pentanamide] | 100 to 1000
3 | CCC(=O)NCCNC(=O)/N=C(/N)NCCC[C@@H](NC(=O)[C@H](c1ccc(OCCCNC(=O)NCCONC(=O)CN2CCN(CC(=O)O)CCN(CC(=O)O)CCN(CC(=O)O)CC2)cc1)N1Cc2ccccc2C1)C(=O)NCc1c(F)cc(O)cc1F [compound 45, 2,2′,2″-(10-(12-(4-((1S,4R,Z)-9-amino-4-((2,6-difluoro-4-hydroxybenzyl)carbamoyl)-1-(isoindolin-2-yl)-2,11,16-trioxo-3,8,10,12,15-pentaazaoctadec-9-en-1-yl)phenoxy)-2,8-dioxo-4-oxa-3,7,9-triazadodecyl)-1,4,7,10-tetraazacyclododecane-1,4,7-triyl)triacetic acid] | < 10
4 | CCC(=O)NCCNC(=O)/N=C(/N)NCCC[C@@H](NC(=O)[C@H](c1cccc(NCCCNC(=O)NOCCNC(=O)CN2CCN(CC(=O)O)CCN(CC(=O)O)CCN(CC(=O)O)CC2)c1)N1Cc2ccccc2C1)C(=O)NCc1ccc(O)cc1 [compound 22, 2,2′,2″-(10-(12-((3-((1S,4R,Z)-9-amino-4-((4-hydroxybenzyl)carbamoyl)-1-(isoindolin-2-yl)-2,11,16-trioxo-3,8,10,12,15-pentaazaoctadec-9-en-1-yl)phenyl)amino)-2,8-dioxo-6-oxa-3,7,9-triazadodecyl)-1,4,7,10-tetraazacyclododecane-1,4,7-triyl)triacetic acid] | < 10
5 | CCC(=O)NCCNC(=O)/N=C(/N)NCCC[C@@H](NC(=O)[C@H](c1cccc(NCCCNC(=O)CCOCCNC(=O)CN2CCN(CC(=O)O)CCN(CC(=O)O)CCN(CC(=O)O)CC2)c1)N1Cc2ccccc2C1)C(=O)NCc1ccc(O)cc1 [compound 20, 2,2′,2″-(10-(2-((2-(3-((3-((3-((1S,4R,Z)-9-amino-4-((4-hydroxybenzyl)carbamoyl)-1-(isoindolin-2-yl)-2,11,16-trioxo-3,8,10,12,15-pentaazaoctadec-9-en-1-yl)phenyl)amino)propyl)amino)-3-oxopropoxy)ethyl)amino)-2-oxoethyl)-1,4,7,10-tetraazacyclododecane-1,4,7-triyl)triacetic acid] | < 10
6 | CCC(=O)NCCNC(=O)/N=C(/N)NCCC[C@@H](NC(=O)[C@H](c1ccc(OCCCNC(=O)[C@@H](CO)NC(=O)[C@@H](CO)NC(=O)[C@@H](CO)NC(=O)CCNC(=O)CN2CCN(CC(=O)O)CCN(CC(=O)O)CCN(CC(=O)O)CC2)cc1)N1Cc2ccccc2C1)C(=O)NCc1c(F)cc(O)cc1F [compound 54, 2,2′,2″-(10-((8R,11R,14R)-19-(4-((1S,4R,Z)-9-amino-4-((2,6-difluoro-4-hydroxybenzyl)carbamoyl)-1-(isoindolin-2-yl)-2,11,16-trioxo-3,8,10,12,15-pentaazaoctadec-9-en-1-yl)phenoxy)-8,11,14-tris(hydroxymethyl)-2,6,9,12,15-pentaoxo-3,7,10,13,16-pentaazanonadecyl)-1,4,7,10-tetraazacyclododecane-1,4,7-triyl)triacetic acid] ({DOTA-βAla}-[dS][dS][dS][X1][dArg(Nω-CONH(CH2)2NHCOEt)]-{NH(2,6-F2-4-OH-benzyl)}) | < 10
7 | N=C(N)NCCC[C@@H](NC(=O)C(c1ccccc1)N1CCC2(CC1)CC(F)(F)C2)C(=O)NCc1ccc(O)cc1 (stereo partly drawn) [compound 90, (2R)-2-(2-(2,2-difluoro-7-azaspiro[3.5]nonan-7-yl)-2-phenylacetamido)-5-guanidino-N-(4-hydroxybenzyl)pentanamide] | 100 to 1000
8 | CCC(=O)NCCNC(=O)/N=C(/N)NCCC[C@@H](NC(=O)[C@H](c1cccc(NCCCNC(=O)CCCCCNC(=O)CN2CCC(NC(=O)CN3CCN(CC(=O)O)CCN(CC(=O)O)CCN(CC(=O)O)CC3)CC2)c1)N1Cc2ccccc2C1)C(=O)NCc1ccc(O)cc1 [compound 28, 2,2′,2″-(10-(2-((1-(2-((6-((3-((3-((1S,4R,Z)-9-amino-4-((4-hydroxybenzyl)carbamoyl)-1-(isoindolin-2-yl)-2,11,16-trioxo-3,8,10,12,15-pentaazaoctadec-9-en-1-yl)phenyl)amino)propyl)amino)-6-oxohexyl)amino)-2-oxoethyl)piperidin-4-yl)amino)-2-oxoethyl)-1,4,7,10-tetraazacyclododecane-1,4,7-triyl)triacetic acid] | < 10
9 | CCC(=O)NCCNC(=O)/N=C(/N)NCCC[C@@H](NC(=O)[C@H](c1ccc(OCCCNc2c(NCCCCCCNC(=O)CN3CCN(CC(=O)O)CCN(CC(=O)O)CCN(CC(=O)O)CC3)c(=O)c2=O)cc1)N1Cc2ccccc2C1)C(=O)NCc1c(F)cc(O)cc1F [compound 37, 2,2′,2″-(10-(2-((6-((2-((3-(4-((1S,4R,Z)-9-amino-4-((2,6-difluoro-4-hydroxybenzyl)carbamoyl)-1-(isoindolin-2-yl)-2,11,16-trioxo-3,8,10,12,15-pentaazaoctadec-9-en-1-yl)phenoxy)propyl)amino)-3,4-dioxocyclobut-1-en-1-yl)amino)hexyl)amino)-2-oxoethyl)-1,4,7,10-tetraazacyclododecane-1,4,7-triyl)triacetic acid] | < 10
10 | CCC(=O)NCCNC(=O)/N=C(/N)NCCC[C@@H](NC(=O)[C@@H](c1cccc(NC(=O)CCCNc2c(NCCCCCCNC(=O)CN3CCN(CC(=O)O)CCN(CC(=O)O)CCN(CC(=O)O)CC3)c(=O)c2=O)c1)N1Cc2ccccc2C1)C(=O)NCc1c(F)cc(O)cc1F (single isomer, unassigned) [31B] | < 10
11 | CCC(=O)NCCNC(=O)/N=C(/N)NCCC[C@@H](NC(=O)[C@H](c1ccccc1)N1Cc2cccc(NC(=O)CCCNC(=O)CCCCCNC(=O)CN3CCN(CC(=O)O)CCN(CC(=O)O)CCN(CC(=O)O)CC3)c2C1)C(=O)NCc1c(F)cc(O)cc1F [compound 9, 2,2′,2″-(10-(2-((6-((4-((2-((1S,4R,Z)-9-amino-4-((2,6-difluoro-4-hydroxybenzyl)carbamoyl)-2,11,16-trioxo-1-phenyl-3,8,10,12,15-pentaazaoctadec-9-en-1-yl)isoindolin-4-yl)amino)-4-oxobutyl)amino)-6-oxohexyl)amino)-2-oxoethyl)-1,4,7,10-tetraazacyclododecane-1,4,7-triyl)triacetic acid] | < 10
12 | CCC(=O)NCCNC(=O)/N=C(/N)NCCC[C@@H](NC(=O)[C@H](c1ccccc1)N1Cc2cccc(NCCCNC(=O)CCC(=O)NCCNC(=O)CN3CCN(CC(=O)O)CCN(CC(=O)O)CCN(CC(=O)O)CC3)c2C1)C(=O)NCc1c(F)cc(O)cc1F [compound 42, 2,2′,2″-(10-(2-((2-(4-((3-((2-((1S,4R,Z)-9-amino-4-((2,6-difluoro-4-hydroxybenzyl)carbamoyl)-2,11,16-trioxo-1-phenyl-3,8,10,12,15-pentaazaoctadec-9-en-1-yl)isoindolin-4-yl)amino)propyl)amino)-4-oxobutanamido)ethyl)amino)-2-oxoethyl)-1,4,7,10-tetraazacyclododecane-1,4,7-triyl)triacetic acid] | < 10
13 | CCC(=O)NCCNC(=O)/N=C(/N)NCCC[C@@H](NC(=O)C(c1ccccc1)N1Cc2ccccc2C1)C(=O)NCc1ccc(O)cc1 (stereo partly drawn) [compound 60, (2R)—N-(4-hydroxybenzyl)-2-(2-(isoindolin-2-yl)-2-phenylacetamido)-5-((Z)-2-((2-propionamidoethyl)carbamoyl)guanidino)pentanamide] | < 10
14 | CCC(=O)NCCNC(=O)/N=C(/N)NCCC[C@@H](NC(=O)[C@H](c1cccc(NCCCNC(=O)CCCCCNC(=O)CN2CCN(CC(=O)O)CCN(CC(=O)O)CCN(CC(=O)O)CC2)c1)N1Cc2ccccc2C1)C(=O)NCc1ccc(O)cc1 [compound 19, 2,2′,2″-(10-(2-((6-((3-((3-((1S,4R,Z)-9-amino-4-((4-hydroxybenzyl)carbamoyl)-1-(isoindolin-2-yl)-2,11,16-trioxo-3,8,10,12,15-pentaazaoctadec-9-en-1-yl)phenyl)amino)propyl)amino)-6-oxohexyl)amino)-2-oxoethyl)-1,4,7,10-tetraazacyclododecane-1,4,7-triyl)triacetic acid] | < 10
15 | CCNC(=O)/N=C(/N)NCCC[C@@H](NC(=O)[C@H](c1ccccc1)N1Cc2ccc(NCCCN)cc2C1)C(=O)NCc1c(F)cc(O)cc1F [65A, (R)-2-((S)-2-(5-((3-aminopropyl)amino)isoindolin-2-yl)-2-phenylacetamido)-N-(2,6-difluoro-4-hydroxybenzyl)-5-((Z)-2-(ethylcarbamoyl)guanidino)pentanamide] | < 10
16 | CCC(=O)NCCNC(=O)/N=C(/N)NCCC[C@@H](NC(=O)[C@H](c1ccc(OCCCNC(=O)CCC(=O)NCCNC(=O)CCC(C(=O)O)N2CCN(CC(=O)O)CCN(CC(=O)O)CCN(CC(=O)O)CC2)cc1)N1Cc2ccccc2C1)C(=O)NCc1c(F)cc(O)cc1F (stereo partly drawn) [compound 49, 2,2′,2″-(10-(4-((2-(4-((3-(4-((1S,4R,Z)-9-amino-4-((2,6-difluoro-4-hydroxybenzyl)carbamoyl)-1-(isoindolin-2-yl)-2,11,16-trioxo-3,8,10,12,15-pentaazaoctadec-9-en-1-yl)phenoxy)propyl)amino)-4-oxobutanamido)ethyl)amino)-1-carboxy-4-oxobutyl)-1,4,7,10-tetraazacyclododecane-1,4,7-triyl)triacetic acid] | < 10
17 | N=C(N)NCCC[C@@H](NC(=O)[C@H](c1ccccc1)N1Cc2ccccc2C1)C(=O)NCc1ccc(O)cc1 [compound 70, (R)-5-guanidino-N-(4-hydroxybenzyl)-2-((S)-2-(isoindolin-2-yl)-2-phenylacetamido)pentanamide] | 10 to 100

Reference: patent publication US20250213735A1, “NEUROPEPTIDE Y1 RECEPTOR (NPY1R) TARGETED THERAPEUTICS AND USES THEREOF” (Radionetics Oncology, Inc., priority 2023, published 2025)
